Data taken from patent US20070213226A1, “AGROCHEMICAL COMPOSITIONS COMPRISING ALKYLENEDIOL-MODIFIED POLYSILOXANES” (priority 2006, published 2007).

Key:
[1] = test system: Senna tora (sickle senna); test: Field trial, herbicide control of Senna tora, with and without simulated rain; format: in vivo; conditions: 30 days after treatment, 720 g ae/ha
From the text: Statistical calculations were done on the means.

[2] = test system: Poa pratensis (meadowgrass or Kentucky blue grass); test: Greenhouse trial, sulfonylurea herbicides for grass weed control; format: in vivo; conditions: mean of 3 replicates ± SD
Method: Greenhouse trials were carried out where the effect of ADS-1 on the efficacy of the sulfonylurea herbicides nicosulfuron (4.2% SC Motivell from BASF) and rimsulfuron (25% WG Cato from Dupont) for grass weed control was tested. Seed of the grass Poa pratensis (meadowgrass or Kentucky blue grass) was densely sown in pots and grown for 6 weeks until reaching a height of about 25 cm. The herbicides were tank mixed with the adjuvant ADS-1 at doses given also in the table. […] Researchers trained in the art have knowledge about such technology, and about the method of assessment.

## O=C(O)CNCP(=O)(O)O [Glyphosate, glyphosate]
[1]; with 4 mm rain aftertreatment
  Control (%) of Senna tora: 75.0 d %
[1]; without rain aftertreatment
  Control (%) of Senna tora: 96.0 a %

## COc1cc(OC)nc(NC(=O)NS(=O)(=O)c2ncccc2C(=O)N(C)C)n1 [Nicosulfuron, nicosulfuron]
[2]; Table 9, dose/ha 25 ml Motivell
  % Control: 87 ± 3%

## CCS(=O)(=O)c1cccnc1S(=O)(=O)NC(=O)Nc1nc(OC)cc(OC)n1 [Rimsulfuron, rimsulfuron]
[2]; Table 10, dose/ha 10 g Cato
  % Control: 43 ± 6%
